{
  "source": "patent US20100197788A9",
  "about": "“Preventive or therapeutic agent for disease caused by decrease in lacrimal fluid” (priority 2005, published 2010)",
  "key": {"[1]": {"tested_on": "male Japanese white rabbits", "experiment": "Measurement of tear secretion in rabbits given a β3 AR stimulant (Example 1), with or without ICI-118551 pre-treatment", "format": "in vivo, rabbit", "description": "Four fasting male Japanese white rabbits (about 3 kg) were allocated to each group. Compound 1 (hydrochloride, 3 or 30 mg/kg), a β3 AR stimulant, or the vehicle (0.5% gum Arabic) was administered to the duodenum through a needle placed in the duodenum of a rabbit, which was anesthetized with urethane (25%, 5 mL/kg, subcutaneously). The quantity of tear secretion was measured for 5 min before drug administration and for 5 min at 20 min after drug administration in the following manner. One piece each of pre-weighed filter paper (Wattman No. 41, 0.22 mm thick, 2.5×1.5 mm) was inserted to each of the upper and lower eyelids of either right or left eye. The difference in weight of the filter papers before and after insertion (post-insertion weight−pre-insertion weight) was defined as the quantity of tear secretion. Fifty (50) μL of a local anesthetic agent, 0.4% oxybuprocaine hydrochloride (Santen Co.), was instilled into eyes 5 min before each measurement. Tear and the instilled local anesthetic were wiped immediately before the filter paper was inserted. Filter papers recovered after each measurement were placed into tubes. A phosphate buffer (pH 7.4) (500 μL) was added to each of the tubes, and they were agitated for 30 sec. After the filter papers were removed and the mixture was centrifuged at 1,880×g for 5 min, protein concentrations in supernatant were measured using Micro BCA Protein Assay Reagent Kit (Pierce Co.). The quantity of protein in tear was calculated based on the protein concentration and the quantity of tear secretion at each time. The difference in the quantity of tear secretion before administration of a test drug and that at each measurement after administration was defined as a change in the quantity of tear secretion or protein in tear. Each milligram of the change in the quantity of tear was taken as 1 μL in tabulation. As a result, administration of Compound 1 (hydrochloride, 3 or 30 mg/kg) into the duodenum facilitated the tear secretion and protein secretion in tear.\nIn addition, in order to study the role played by a β2 AR stimulating activity in the above-described actions of Compound 1, 30 μg/kg of ICI-118551 (Sigma Co.), a selective β2 AR inhibitor, was administered intravenously 5 min before administration of Compound 1 (30 mg/kg) and the same test was performed. The facilitating activities of tear secretion and protein secretion in tear by Compound 1 were not affected by pre-treatment with the selective β2 AR inhibitor, ICI-118551 (30 μg/kg, i.v.) (FIG. 5). The results confirmed that the Compound 1's activities facilitating tear secretion and protein secretion in tear were exerted by way of β3 AR."}, "rabbit conjunctiva": {"tested_on": "rabbit conjunctiva", "experiment": "Mucin secretion from the rabbit conjunctiva following ocular instillation, impression cytology method (Example 5)", "format": "in vivo", "conditions": "0.1% solution, 50 μL, 30 min after instillation, vs vehicle, rabbits", "description": "Four male Japanese white rabbits (about 3 kg) were allocated to each group. After rabbits were anesthetized with ketamine-xylazine (3:1), 50 μL of Compound 2 (0.1% solution), terbutaline sulfate (0.1% solution) or their vehicle (a phosphate buffer solution, pH 7.4) were instilled in either side of eyes. Mucin secretion from the conjunctiva was measured 30 min after instillation by impression cytology method. That is, after ocular instillation of 50 μL of a local anesthetic (0.4% oxybuprocaine hydrochloride by Santen Co.), residual tear was wiped 5 min after instillation and 3×3 mm cellulose acetate filter paper was pressed on the conjunctiva for 30 sec. Then, PAS staining was performed with the recovered filter papers in the same manner as in Example 2. After filter papers were cleared and embedded, the number of PAS positive goblet cells existing in a certain visual field of a microscope was counted. Decreases in the count of PAS positive goblet cells indicate that mucin secretion from the conjunctiva is facilitated. […] However, terbutaline sulfate had no effect (FIG. 9)."}, "[2]": {"tested_on": "male Japanese white rabbits", "experiment": "Measurement of tear in rabbits following ocular instillation (Example 4)", "format": "in vivo, rabbit", "conditions": "0.1% solution, 50 μL", "description": "Four fasting male Japanese white rabbits (about 3 kg) were allocated to each group. After rabbits were anesthetized with urethane (25%, 5 mL/kg, subcutaneously), 50 μL of Compound 2 (0.1% solution) or the vehicle (a phosphate buffer solution, pH 7.4) was instilled in either right or left eye. The quantity of tear secretion was measured and calculated for each 5 min before and at 5 and 20 min after instillation in the same manner as in Example 1. The difference in the quantity of tear secretion before administration of a test drug and that at each measurement time after ocular instillation was defined as a change in the quantity of tear secretion. Each milligram of the change in the quantity of tear secretion was considered as 1 μL in tabulation."}, "[3]": {"tested_on": "male Japanese white rabbits", "experiment": "Measurement of tear in rabbits given a β3 AR stimulant having a β2 AR stimulating activity (Example 2)", "format": "in vivo, rabbit", "conditions": "for total quantity of protein secretion in tear / total quantity of tear secretion: 60 min, compared to Control group", "description": "Four fasting male Japanese white rabbits (about 3 kg) were allocated to each group. Compound 2 (0.3, 1 or 10 mg/kg), which is a β3 AR stimulant having a β2 AR stimulating activity, terbutaline sulfate (10 mg/kg), which is a β2 AR stimulant, or their vehicle (distilled water) was administered to the duodenum through a needle placed in the duodenum of a rabbit which was anesthetized with urethane (25%, 5 mL/kg, subcutaneously). In the same manner as in Example 1, quantities of tear secretion and protein in tear were measured for each 5 min before drug administration and at 5, 20, 30, 40 and 50 min after drug administration. The total quantities of tear secretion and protein in tear were defined as the sum total of the quantities of secretion at each measurement time during 60 min after administration of the test drug. Each […] of the change in the quantity of tear was considered as 1 μL in tabulation."}, "male SD strain rats": {"tested_on": "male SD strain rats", "experiment": "Measurement of tear in rats given a β3 AR stimulant having a β2 AR stimulating activity (Example 3)", "format": "in vivo, rat", "conditions": "for total quantity of protein secretion in tear / total quantity of tear secretion: 60 min, compared to Control group", "description": "Nine (9) to 10 fasting male SD strain rats (7 weeks old) were allocated to each group. Rats were fixed in prone position under urethane anesthesia (25%, 5 mL/kg, subcutaneously). Compound 2 (0.3, 1 or 10 mg/kg), which is a β3 AR stimulant having a β2 AR stimulating activity, terbutaline sulfate (10 mg/kg), which is a β2 AR stimulant, or their vehicle (distilled water) were administered to the duodenum through a needle placed in the duodenum. One end of a capillary (Drummond Microdispenser Co. 10 μL) was placed at the inner canthus of rat right eye after tear was wiped. The quantity of tear secretion was measured by the length of the capillary filled with tear in 60 minutes after drug administration. The total quantity of tear secretion (μL) was calculated using the inner diameter of the capillary and the length of the capillary filled with tear. After the quantity of tear secretion was measured, the tear in the capillary was recovered in a tube to measure the protein concentration using Micro BCA Protein Assay Reagent Kit (Pierce Co.). The total quantity of protein in tear was calculated using the obtained protein concentration and the total quantity of tear secretion."}, "[4]": {"conditions": "Compound 1 30 mg/kg, ICI-118551 30 μg/kg i.v. 5 min before"}, "[5]": {"conditions": "hydrochloride, 3 or 30 mg/kg into the duodenum, anesthetized rabbits, 5 min at 20 min after administration vs before"}, "[6]": {"conditions": "0.3, 1 and 10 mg/kg into the duodenum"}, "[7]": {"conditions": "doses of 1 mg/kg and above into the duodenum"}, "[8]": {"conditions": "10 mg/kg into the duodenum, compared to Compound 2 (10 mg/kg) group"}},
  "note": "Counter-ions that a name gives are not always drawn.",
  "data": [
    {"compound": "CCOC(=O)COc1cc(C)c(CCN[C@@H](C)[C@H](O)c2ccc(O)cc2)cc1C", "note": "[Compound 1, ethyl 2-[4-[2-[[(1S,2R)-2-hydroxy-2-(4-hydroxy-phenyl)-1-methylethyl]amino]ethyl]-2,5-dimethylphenoxy]-acetate]", "values": [
      {"measurement": "change in the quantity of protein in tear", "setting": "[1]; 30 mg/kg into the duodenum, compared to Control group (p<0.05, Dunnett)", "result": "significantly increased"},
      {"measurement": "facilitating activity of protein secretion in tear after pre-treatment with selective β2 AR inhibitor", "setting": "[1]; [4]", "result": "not affected"},
      {"measurement": "facilitating activity of tear secretion after pre-treatment with selective β2 AR inhibitor", "setting": "[1]; [4]", "result": "not affected"},
      {"measurement": "protein secretion in tear", "setting": "[1]; [5]", "result": "facilitated"},
      {"measurement": "tear secretion", "setting": "[1]; [5]", "result": "facilitated"}
    ]},
    {"compound": "C[C@H](NCCc1ccc(OCC(=O)O)cc1)[C@H](O)c1ccc(O)cc1", "note": "[Compound 2]", "values": [
      {"measurement": "mucin secretion from the conjunctiva (count of PAS positive goblet cells)", "setting": "rabbit conjunctiva", "result": "facilitated mucin secretion from the conjunctiva more than the vehicle did"},
      {"measurement": "tear secretion", "setting": "[2]", "result": "facilitated"},
      {"measurement": "quantity of tear secretion measured for 5 min after ocular instillation", "setting": "[2]; compared to Control group", "result": "significantly increased"},
      {"measurement": "protein secretion in tear", "setting": "[3]; [6]", "result": "facilitated dose-dependently"},
      {"measurement": "tear secretion", "setting": "[3]; [6]", "result": "facilitated dose-dependently"},
      {"measurement": "total quantity of protein secretion in tear", "setting": "[3]; [7]", "result": "significantly increased"},
      {"measurement": "total quantity of tear secretion", "setting": "[3]; [7]", "result": "significantly increased"},
      {"measurement": "protein secretion in tear", "setting": "male SD strain rats; [6]", "result": "facilitated dose-dependently"},
      {"measurement": "tear secretion", "setting": "male SD strain rats; [6]", "result": "facilitated dose-dependently"},
      {"measurement": "total quantity of protein secretion in tear", "setting": "male SD strain rats; [7]", "result": "significantly increased"},
      {"measurement": "total quantity of tear secretion", "setting": "male SD strain rats; [7]", "result": "significantly increased"}
    ]},
    {"compound": "CC(C)(C)NCC(O)c1cc(O)cc(O)c1", "note": "(stereo not drawn) [terbutaline sulfate, reference compound]", "values": [
      {"measurement": "mucin secretion from the conjunctiva (count of PAS positive goblet cells)", "setting": "rabbit conjunctiva", "result": "no effect"},
      {"measurement": "total quantity of protein secretion in tear", "setting": "[3]; 10 mg/kg into the duodenum", "result": "significantly increased"},
      {"measurement": "total quantity of tear secretion", "setting": "[3]; 10 mg/kg into the duodenum", "result": "significantly increased"},
      {"measurement": "increase in total quantity of protein secretion in tear", "setting": "[3]; [8]", "result": "significantly lower"},
      {"measurement": "increase in total quantity of tear secretion", "setting": "[3]; [8]", "result": "significantly lower"},
      {"measurement": "total quantity of protein secretion in tear", "setting": "male SD strain rats; 10 mg/kg into the duodenum", "result": "significantly increased"},
      {"measurement": "total quantity of tear secretion", "setting": "male SD strain rats; 10 mg/kg into the duodenum", "result": "significantly increased"},
      {"measurement": "total quantity of protein in tear", "setting": "male SD strain rats; [8]", "result": "significantly lower"}
    ]}
  ]
}
